# System: NMDA receptor
# Conditions: effect blocked by a specific NMDA-site antagonist and a glycine-site antagonist; cited from earlier work
row,SMILES,post synaptic current driven by the NMDA receptor
1,CN(CCC(Oc1ccc(-c2ccccc2)cc1)c1ccc(F)cc1)CC(=O)O (stereo not drawn) [NFPS],increased the post synaptic current driven by the NMDA receptor

# System: not given
# Conditions: not given
row,SMILES,melting point [°C]
1,Cc1ccc(OC(CCN(C)CC(=O)O)c2ccc(F)cc2)cc1Oc1ccc2c(c1)OCO2 (stereo not drawn),185 to 188
2,COc1cc(OC(CCN(C)CC(=O)O)c2ccccc2)ccc1Oc1ccccc1 (stereo not drawn),77.5
3,COc1ccc(Oc2cc(OC(CCN(C)CC(=O)O)c3ccc(F)cc3)ccc2C)cc1 (stereo not drawn),63 to 65
4,COc1cccc(Oc2cc(OC(CCN(C)CC(=O)O)c3ccc(F)cc3)ccc2C)c1 (stereo not drawn),55 to 57

# Other lines, results leading:
row,melting point [°C],SMILES
1,129.3,Cc1ccc(Oc2ccc(OC(CCN(C)CC(=O)O)c3ccc(F)cc3)c(Cl)c2)cc1 (stereo not drawn)
2,139.5,COc1cc(OC(CCN(C)CC(=O)O)c2ccc(F)cc2)ccc1Oc1ccccc1 (stereo not drawn)
3,60 to 61,CN(CCC(Oc1ccc(Oc2cccc3c2CCCC3)cc1)c1ccc(F)cc1)CC(=O)O (stereo not drawn)
4,60.1,COc1ccc(Oc2ccc(OC(CCN(C)CC(=O)O)c3ccccc3)cc2OC)cc1 (stereo not drawn)

# Source: patent publication US6566550B2, “Substituted aromatic ethers as inhibitors of glycine transport” (Pfizer Inc, priority 2001, dated 2003)
